In data set [1] the test system is human glioblastoma U87 MG cells. Briefly: Antitumor efficacy study for systemic delivery, subcutaneous U87 MG tumor. Format: in vivo, athymic nude mice. The note with it: for mean tumor volume: three weeks after treatment. How it is done: A total of 2×10^6 human glioblastoma U87 MG cells were subcutaneously injected into the right shoulder of athymic nude mice (8-9 weeks old). The mice were used for the efficacy study after three to four weeks when the tumor had reached about 190-250 mm^3 in size. […]. Water insoluble free CPT was dissolved/suspended in a mixture of DMSO/ethanol/PEG-400/water (1:1:2:1). CPT (4.5 mg/kg) and irinotecan (60 mg/kg) were administered by intraperitoneal injection, while freshly prepared TT 1 solutions of various doses were administered intravenously by tail vein injection every 4 days for a total of three doses (days 1, 5, and 9). […]. Tumor volumes were measured and recorded every other day. The body weights were measured and recorded every day or every other day. The tumor volume was determined by measuring the tumor in two dimensions with calipers and using the formula “tumor volume=(length×width^2)/2”. Each animal was euthanized once the tumor volume reached the predetermined end point size of 2000 mm^3.

Data set [2] in a line: Biodistribution study in U87 MG tumor-bearing mice. In kind it is in vivo, nude mice. The method, then: Mice bearing subcutaneous tumors were established by injecting 100 μL of a U87 MG suspension in serum-free medium (2×10^6 cells) into the right flank of the mice. When the tumor reached a size of −200 mm^3, the mice were randomly grouped and received one of the following 3 treatments via intravenous injection (n=18 for each group): free CPT (4.5 mg/kg), TT 1 (4.5 mg/kg), and TT 1 (15 mg/kg). Three mice from each group were euthanized at pre-determined time points (1, 2, 4, 8, 12, and 24 h). Plasma, major organs, and tumors were collected and stored at −80° C. for further analysis. To determine the amount of free CPT and TT 1 in the samples, 100 mg tumors were mixed with 900 μL acetonitrile (containing 0.1% TFA) and then homogenized using Precellys Evolution Super Homogenizer (Bertin Technologies, France) for 3×40 s (5,600 shakes/min). The resulting suspensions were centrifuged and the supernatants were collected. For plasma, 50 μL of sample was mixed with 450 μL acetonitrile (containing 0.1% TFA) and sonicated for 1 min. The supernatants were collected using centrifugation. All samples were filtered through a 0.22 μm membrane before analysis by a UPLC system (Waters ACQuity™ Ultra Performance LC) equipped with a reverse-phase column (ACQuity UPLC@BEH, C18, 1.7 μm 2.1×150 mm) and a fluorescence detector (ACQuity FLR, Ex/Em=362/430 nm). The column was flushed with a mixture of water (0.1% TFA) and acetonitrile (0.1% TFA) at 0.3 mL/min with the following gradient: 5% acetonitrile (0-1 min), 5-95% acetonitrile (1-5 min), 95% acetonitrile (5-8 min), 95-5% acetonitrile (8-9 min), and 5% acetonitrile (9-10 min). Peaks with retention times of 5.4 min (free CPT) and 6.9 min (TT 1) were monitored.

The source of these data is US20220211858A1, “TUBULAR SUPRAMOLECULAR POLYMERS” (priority 2019, published 2022).

For the compound `CC[C@]1(OC(=O)OCCSSC[C@@H](NC(C)=O)C(=O)N[C@@H](CCCCNC(=O)[C@@H](CSSCCOC(=O)O[C@]2(CC)C(=O)OCc3c2cc2n(c3=O)Cc3cc4ccccc4nc3-2)NC(C)=O)C(=O)N[C@@H](CCCCNC(=O)CCOCCOCCOCCOCCOC)C(=O)N[C@@H](CCCCNC(=O)CCOCCOCCOCCOCCOC)C(N)=O)C(=O)OCc2c1cc1n(c2=O)Cc2cc3ccccc3nc2-1` [TT 1], the median survival in data set [1] (TT 1 4.5 mg/kg (CPT equivalent) i.v. days 1, 5, 9) was 23 days; in data set [1] (TT 1 9 mg/kg i.v. days 1, 5, 9) it was 37 days; in data set [1] (TT 1 15 mg/kg i.v. days 1, 5, 9) it was 43 days. Further, in data set [1] (TT 1 4.5 mg/kg, up to 15 days), the tumor volume turned out to be 417 mm^3. Moreover, the “survival of four out of five mice” value is “up to 37 d” in data set [1] (TT 1 9 mg/kg) and no more than 43 days in data set [1] (TT 1 15 mg/kg). Further, the mean tumor volume was found to be 94 mm^3 in data set [1] (TT 1 9 mg/kg) and 59 mm^3 in data set [1] (TT 1 15 mg/kg). Moreover, the “increase of plasma concentration versus free CPT” value in data set [2] (4.5 mg/kg i.v., 1 hour) is “approximately 129 fold”. The “increase of tumor concentration versus free CPT” value in data set [2] (4.5 mg/kg i.v., 1 hour) is given as 8 fold. Further, the “TT 1 converted to free CPT in the tumor” value is on record as 47% in data set [2] (4.5 mg/kg, 1 hour after injection); 82% in data set [2] (4.5 mg/kg, 8 hours); 58% in data set [2] (15 mg/kg, 1 hour after injection); 96% in data set [2] (15 mg/kg, 8 hours). In addition, in data set [2] (i.v.), the “retention in the blood” value is listed as “up to 12 hours”.
